The target in this test is T1, Zcchc11 enzyme (Homo sapiens, UniProt Q5TAX3).
T1 construct: made in house; host or cells: HEK293 cells (Zcchc11); E. coli Rosetta II (LIN28A)
T1 sequence (Q5TAX3 212-1420): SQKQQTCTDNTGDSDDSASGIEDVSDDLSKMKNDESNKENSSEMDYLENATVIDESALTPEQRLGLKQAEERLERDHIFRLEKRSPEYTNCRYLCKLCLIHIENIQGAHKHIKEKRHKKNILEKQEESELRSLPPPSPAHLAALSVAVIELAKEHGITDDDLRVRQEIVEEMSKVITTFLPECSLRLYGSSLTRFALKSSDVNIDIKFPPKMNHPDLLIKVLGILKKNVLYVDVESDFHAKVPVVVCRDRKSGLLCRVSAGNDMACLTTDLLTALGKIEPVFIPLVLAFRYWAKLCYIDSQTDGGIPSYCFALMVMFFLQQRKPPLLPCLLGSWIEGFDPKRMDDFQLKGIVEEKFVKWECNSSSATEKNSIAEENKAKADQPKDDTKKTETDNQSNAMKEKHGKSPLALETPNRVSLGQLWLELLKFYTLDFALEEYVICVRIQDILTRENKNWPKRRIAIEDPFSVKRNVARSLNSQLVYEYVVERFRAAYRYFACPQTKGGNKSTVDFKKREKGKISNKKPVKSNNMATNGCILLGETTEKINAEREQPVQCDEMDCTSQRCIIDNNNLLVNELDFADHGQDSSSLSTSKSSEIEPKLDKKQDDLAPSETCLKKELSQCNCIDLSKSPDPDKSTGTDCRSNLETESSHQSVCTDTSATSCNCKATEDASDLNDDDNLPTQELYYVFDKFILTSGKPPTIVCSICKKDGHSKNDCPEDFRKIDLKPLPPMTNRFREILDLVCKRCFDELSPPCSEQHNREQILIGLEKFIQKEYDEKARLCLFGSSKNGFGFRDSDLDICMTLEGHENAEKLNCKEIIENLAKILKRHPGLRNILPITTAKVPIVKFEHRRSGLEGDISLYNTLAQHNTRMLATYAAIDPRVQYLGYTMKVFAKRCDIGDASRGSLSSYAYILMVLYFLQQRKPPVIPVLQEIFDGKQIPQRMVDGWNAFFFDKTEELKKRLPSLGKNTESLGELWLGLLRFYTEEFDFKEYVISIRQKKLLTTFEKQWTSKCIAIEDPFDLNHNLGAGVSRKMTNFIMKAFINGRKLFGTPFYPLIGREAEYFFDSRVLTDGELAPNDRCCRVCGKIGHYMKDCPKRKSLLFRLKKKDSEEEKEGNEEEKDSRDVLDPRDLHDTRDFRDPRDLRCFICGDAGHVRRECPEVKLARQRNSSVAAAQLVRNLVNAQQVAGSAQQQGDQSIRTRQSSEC
The test is described as follows: TUTase assay (Zcchc11 assay, Lin28a-dependent polyuridylation of pre-let-7). It is filed as biochemical. The note with it: Lin28a-dependent Zcchc11 (Z11) TUTase activity; read-out: Potency Lin28a-dep Z11 IC50. An outline of the steps:
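Human Zcchc11 residues 212-1420 (HEK293-expressed, MBP tag cleaved, C-terminal FLAG) at 0.2 nM, with 10 nM full-length human LIN28A and 2 nM 5′-fluorescein pre-let-7, preincubated with compound 30 min at room temperature. Reaction started with 5 uM UTP plus 4 nM 3′-rhodamine A20 quench probe; fluorescein loss read kinetically, IC50 from initial rates.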

A word on the IC50: it is the point on the concentration scale where inhibition reaches its midpoint.

As for `CN(C)C1CN(c2ccc(-n3cc(C(=O)O)c(=O)c4cc(Cl)c(N5CC(c6cn[nH]c6)C[C@@H]5COc5ncccc5Cl)cc43)cn2)C1` (stereo partly drawn) [Compound 304, 6-chloro-7-((2R)-2-(((3-chloropyridin-2-yl)oxy)methyl)-4-(1H-pyrazol-4-yl)pyrrolidin-1-yl)-1-(6-(3-(dimethyl-amino)azetidin-1-yl)pyridin-3-yl)-4-oxo-1,4-dihydro-quinoline-3-carboxylic acid], the IC50 is no more than 1000 nM.
As to `CC1CCN(c2cc3c(cc2Cl)c(=O)c(C(=O)O)cn3-c2ccc(N3CC(N(C)C)C3)nc2)C1COc1ncccc1Cl` (stereo not shown) [Compound 306, 6-chloro-7-(2-(((3-chloropyridin-2-yl)oxy)methyl)-3-methyl-pyrrolidin-1-yl)-1-(6-(3-(dimethyl-amino)azetidin-1-yl)pyridin-3-yl)-4-oxo-1,4-dihydro-quinoline-3-carboxylic acid], the IC50 is no more than 1000 nM.
As for `Cc1ccc(Cl)c(OC[C@H]2C[C@H]3C[C@H]3N2c2cc3c(cc2Cl)c(=O)c(C(=O)O)cn3-c2ccc(N(C)C)nc2)n1` [Compound 308, 6-chloro-7-[(1R,3R,5R)-3-{[(3-chloro-6-methylpyridin-2-yl)oxy]methyl}-2-azabicyclo [3.1.0]hexan-2-yl]-1-[6-(dimethyl-amino)pyridin-3-yl]-4-oxoquinoline-3-carboxylic acid], the figure is no more than 1000 nM; as for `Cc1ccc(Cl)c(OC[C@H]2C[C@H]3C[C@H]3N2c2cc3c(cc2F)c(=O)c(C(=O)O)cn3-c2ccc(N(C)C)nc2)n1` [Compound 309], no more than 1000 nM; as for `CN(C)C1CN(c2ccc(-n3cc(C(=O)O)c(=O)c4cc(Cl)c(N5C(COc6ncccc6Cl)CCS5(=O)=O)cc43)cn2)C1` (stereo not shown) [Compound 311, 6-chloro-7-(3-(((3-chloropyridin-2-yl)oxy)methyl)-1,1-dioxidoiso-thiazolidin-2-yl)-1-(6-(3-(dimethyl-amino)azetidin-1-yl)pyridin-3-yl)-4-oxo-1,4-dihydro-quinoline-3-carboxylic acid], no more than 1000 nM.
As for `Nc1ccc(-n2cc(C(=O)O)c(=O)c3cc(F)c(N4CCC[C@@H]4COc4ncccc4F)cc32)cn1` [Compound 316, 1-(6-Aminopyridin-3-yl)-6-fluoro-7-[(2R)-2-[[(3-fluoropyridin-2-yl)oxy]methyl]pyrrolidin-1-yl]-4-oxoquinoline-3-carboxylic acid], the IC50 is no more than 1000 nM.
Next, `Nc1ccc(-n2cc(C(=O)O)c(=O)c3cc(F)c(N4CCC[C@@H]4COc4ncccc4Cl)cc32)cn1` [Compound 317, 1-(6-Aminopyridin-3-yl)-7-[(2R)-2-[[(3-chloropyridin-2-yl)oxy]methyl]pyrrolidin-1-yl]-6-fluoro-4-oxoquinoline-3-carboxylic acid]: no more than 1000 nM; `CN(C)C1CN(c2ccc(-n3cc(C(=O)O)c(=O)c4cc(Cl)c(N5CCC[C@@H]5COc5ncccc5Cl)cc43)cn2)C1` [Compound 318, 6-Chloro-7-[(2R)-2-[[(3-chloropyridin-2-yl)oxy]methyl]pyrrolidin-1-yl]-1-[6-[3-(dimethyl-amino)azetidin-1-yl]pyridin-3-yl]-4-oxoquinoline-3-carboxylic acid]: no more than 1000 nM; `O=C(O)c1cn(-c2cnn(C3CN(CC(F)F)C3)c2)c2cc(N3CCC[C@@H]3COc3ncccc3Cl)c(Cl)cc2c1=O` [Compound 319, 6-Chloro-7-[(2R)-2-[[(3-chloropyridin-2-yl)oxy]methyl]pyrrolidin-1-yl]-1-[1-[1-(2,2-difluoroethyl)azetidin-3-yl]pyrazol-4-yl]-4-oxoquinoline-3-carboxylic acid]: no more than 1000 nM.
Next, `CN(C)C1CN(c2ccc(-n3cc(C(=O)O)c(=O)c4cc(Cl)c(N5CCC[C@@H]5COc5cnccc5Cl)cc43)cn2)C1` [Compound 320, 6-Chloro-7-[(2R)-2-[[(4 chloropyridin-3-yl)oxy]methyl]pyrrolidin-1-yl]-1-[6-[3-(dimethyl-amino)azetidin-1-yl]pyridin-3-yl]-4-oxoquinoline-3-carboxylic acid]: no more than 1000 nM.
As for `CN(C)C1CN(c2ccc(-n3cc(C(=O)O)c(=O)c4ccc(N5C(=O)CCCC5COc5ccccn5)cc43)cn2)C1` (stereo not shown) [Compound 323, 1-[6-[3-(Dimethyl-amino)azetidin-1-yl]pyridin-3-yl]-4-oxo-7-[2-oxo-6-[(pyridin-2-yloxy)methyl]piperidin-1-yl]quinoline-3-carboxylic acid], the figure is greater than 50000 nM.
`CN(C)C1CN(c2ccc(-n3cc(C(=O)O)c(=O)c4cc(Cl)c(N5C(=O)CCCC5COc5ccccn5)cc43)cn2)C1` (stereo not shown) [Compound 324, 6-Chloro-1-[6-[3-(dimethyl-amino)azetidin-1-yl]pyridin-3-yl]-4-oxo-7-[2-oxo-6-[(pyridin-2-yloxy)methyl]piperidin-1-yl]quinoline-3-carboxylic acid]: the IC50 was in the range of 10000 to 50000 nM.
For the compound `CN(C)C1CN(c2ccc(-n3cc(C(=O)O)c(=O)c4cc(F)c(N5CC(c6cccnc6)C[C@@H]5COc5ncccc5Cl)cc43)cn2)C1` (stereo partly drawn) [Compound 325, 7-[(2R)-2-[[(3-Chloropyridin-2-yl)oxy]methyl]-4-(pyridin-3-yl)pyrrolidin-1-yl]-1-[6-[3-(dimethyl-amino)azetidin-1-yl]pyridin-3-yl]-6-fluoro-4-oxoquinoline-3-carboxylic acid], the IC50 was no more than 1000 nM.
For `COCCN(C)C1CN(c2ccc(-n3cc(C(=O)O)c(=O)c4cc(F)c(N5CC(c6cccnc6)C[C@@H]5COc5ncccc5Cl)cc43)cn2)C1` (stereo partly drawn) [Compound 326, 7-[(2R)-2-[[(3-Chloropyridin-2-yl)oxy]methyl]-4-(pyridin-3-yl)pyrrolidin-1-yl]-6-fluoro-1-(6-[3-[(2-methoxyethyl) (methyl)amino]azetidin-1-yl]pyridin-3-yl)-4-oxoquinoline-3-carboxylic acid], the IC50 was no more than 1000 nM.
For the compound `COC1C[C@H](COc2ncccc2Cl)N(c2cc3c(cc2Cl)c(=O)c(C(=O)O)cn3-c2ccc(N3CC(N(C)C)C3)nc2)C1` (stereo partly drawn) [Compound 327, 6-Chloro-7-[(2R)-2-[[(3-chloropyridin-2-yl)oxy]methyl]-4-methoxy-pyrrolidin-1-yl]-1-[6-[3-(dimethyl-amino)azetidin-1-yl]pyridin-3-yl]-4-oxoquinoline-3-carboxylic acid], the IC50 was no more than 1000 nM.
Take `CC1C[C@H](COc2ncccc2Cl)N(c2cc3c(cc2F)c(=O)c(C(=O)O)cn3-c2ccc(N3CC(N(C)C)C3)nc2)C1` (stereo partly drawn) [Compound 330, 7-[(2R)-2-[[(3-Chloropyridin-2-yl)oxy]methyl]-4-methyl-pyrrolidin-1-yl]-1-[6-[3-(dimethyl-amino)azetidin-1-yl]pyridin-3-yl]-6-fluoro-4-oxoquinoline-3-carboxylic acic]: the IC50 is no more than 1000 nM.
As for `CN(C)C1CN(c2ccc(-n3cc(C(=O)O)c(=O)c4cc(Cl)c(N5CCC[C@@H]5COc5nc(O)ccc5Cl)cc43)cn2)C1` [Compound 331, 6-Chloro-7-[(2R)-2-[[(3-chloro-6-hydroxy-pyridin-2-yl)oxy]methyl]pyrrolidin-1-yl]-1-[6-[3-(dimethyl-amino)azetidin-1-yl]pyridin-3-yl]-4-oxoquinoline-3-carboxylic acid], the figure is no more than 1000 nM; as for `CC1CCN(c2cc3c(cc2Cl)c(=O)c(C(=O)O)cn3-c2ccc(N3CC(N(C)C)C3)nc2)C1COc1nc(N(C)C)ccc1Cl` (stereo not shown) [Compound 332, 6-Chloro-7-[2-({[3-chloro-6-(dimethyl-amino)pyridin-2-yl]oxy}methyl)-3-methyl-pyrrolidin-1-yl]-1-{6-[3-(dimethyl-amino)azetidin-1-yl]pyridin-3-yl}-4-oxoquinoline-3-carboxylic acid], no more than 1000 nM; as for `CC1CCN(c2cc3c(cc2Cl)c(=O)c(C(=O)O)cn3-c2ccnc(N)c2)[C@H]1COc1nc(N(C)C)ccc1Cl` (stereo partly shown) [Compound 333], no more than 1000 nM.

The record behind these values is US12662491B2 (Redona Therapeutics, Inc., priority 2020, dated 2026).
